In US8268809B2, “Kinase inhibitors for preventing or treating pathogen infection and method of use thereof” (priority 2006, dated 2012):

Legend:
[1] = test system: gamma-herpes variant that expresses GFP under a CMV promoter (GHV-Bac-GFP); test: Herpes virus assay: GHV-Bac-GFP infection of 3T3 monolayers, cytopathic effect and GFP spread; format: cell-based, gamma-herpes virus; details: for Herpes phenotype group / HERPES: 3T3 cells, GHV-Bac-GFP; for Herpes phenotype group: 10 μM, after 7 days; for HERPES: compound 10 μM, 7 days
Protocol: All herpes viruses share the property of establishing life-long infection in their host. […] To determine whether tyrosine kinases participate in gamma-herpes virus infections, confluent monolayers of 3T3 cells were exposed and plated in optical 96 well dishes to the library of compounds of the present invention described herein for 1 hour. The cells were then infected with a gamma-herpes variant that expresses GFP under a CMV promoter (GHV-Bac-GFP), and replaced the compounds of the present invention at final concentration of 10 μM.

vaccinia virus [2] = format: cell-based
vaccinia virus [3] = details: background statement, Reeves et al. 2005; cited from earlier work
vaccinia virus [4] = format: cell-based; remark: listed apart in the source

SMILES	Herpes phenotype group [1]	HERPES [1]	VACCINIA Plaque Assay (vaccinia virus [2])	also measured
CCOC(=O)c1ccc(-c2ccc3c(-c4ccc(F)cc4)n[nH]c3n2)cc1 [APcK-53]	(iii)	DE- LAYED CPE		
CC(=O)Nc1ccc(-c2ccc3c(-c4ccc(Cl)c(Cl)c4)n[nH]c3n2)cc1 [APcK-25]	(iii)	DE- LAYED CPE		
Nc1cccc(-c2ccc3nnc(-c4ccco4)n3n2)c1 [LG2-71]	(ii)	ENTRY OR EGRESS INHIB- ITOR	SMALL PLAQUES, WITH COMETS	Class category of infected monolayers in plaque assay (vaccinia virus [2]): Class III; Effects in Vaccinia assays (vaccinia virus [2]): had effects; Plaque phenotype due to drug treatment (FIGS. 1, 2, 4) (vaccinia virus [2]): small plaques with comets; VACCINIA PLAQUE ASSAY 2 (vaccinia virus [2]): PINPOINTS; Effects in Herpes assay [1]: had effects
Cc1ccc(NC(=O)c2ccc(CN3CCN(C)CC3)cc2)cc1Nc1nccc(-c2cncc(-c3ccncc3)c2)n1 [StiAF3-iAR]	(ii)	ENTRY OR EGRESS INHIB- ITOR		
Brc1cnc2c(Nc3ccc(N4CCOCC4)cc3)nccn12 [LG2-77]	(iii)	DE- LAYED CPE		
CC(=O)Nc1cccc(-c2ccc3c(-c4ccc(Cl)c(Cl)c4)n[nH]c3n2)c1 [APcK-42]	(iii)	DE- LAYED CPE		
CCOC(=O)c1ccc(-c2ccc3c(-c4ccc(C)c(F)c4)n[nH]c3n2)cc1 [APcK-51]	(iii)	DE- LAYED CPE		
Cc1ccc(NC(=O)c2ccc(CN3CCN(C)CC3)cc2)cc1Nc1nccc(-c2cccnc2)n1 [CGP-2, reference compound]	(ii)	ENTRY OR EGRESS INHIB- ITOR		Plaque phenotype of known Abl-/Src-family kinase inhibitors (vaccinia virus [3]): somewhat reduced plaque size and loss of comets
Cc1ccc(NC(=O)c2ccc(CN3CCN(C)CC3)cc2)cc1Nc1nccc(-c2cncc(-c3ccncc3)c2)n1 [WBZ-6]		DE- LAYED CPE		
CC(=O)Nc1cccc(-c2ccc3c(-c4ccc(F)cc4)n[nH]c3n2)c1 [APcK-103]	(iii)	DE- LAYED CPE	NO PLAQUES	Class category of infected monolayers in plaque assay (vaccinia virus [2]): Class III; Effects in Vaccinia assays (vaccinia virus [2]): had effects; VACCINIA PLAQUE ASSAY 2 (vaccinia virus [2]): NO PLAQUES; Effects in Herpes assay [1]: had effects
O=C(c1ccccc1)c1ccc(-c2ccc3c(-c4ccc(F)cc4)n[nH]c3n2)cc1 [APcK-36]	(iii)	DE- LAYED CPE		
COc1ccccc1NS(=O)(=O)c1cccc(Nc2cc(-c3ccc(Cl)cc3)ncn2)c1 [Eph2_wbz 115]		DE- LAYED CPE		
CC(=O)Nc1cccc(-c2ccc3c(-c4ccc(Br)c(F)c4)n[nH]c3n2)c1 [APcK-43]		DE- LAYED CPE	NO PLAQUES	Class category of infected monolayers in plaque assay (vaccinia virus [2]): Class III; Effects in Vaccinia assays (vaccinia virus [2]): had effects; VACCINIA PLAQUE ASSAY 2 (vaccinia virus [2]): NO PLAQUES; Effects in Herpes assay [1]: had effects
CC(=O)Nc1ccc(-c2ccc3c(-c4ccc(Br)cc4F)n[nH]c3n2)cc1 [APcK-21]	(iii)	DE- LAYED CPE		
COc1ccccc1Nc1cc(-c2ccc([N+](=O)[O-])cc2)ncn1 [Eph2_wbz 203]			SMALL PLAQUES, STILL SEE COMETS	Class category of infected monolayers in plaque assay (vaccinia virus [2]): Class III; Plaque phenotype due to drug treatment (FIGS. 1, 2, 4) (vaccinia virus [2]): small plaques with comets; VACCINIA PLAQUE ASSAY 2 (vaccinia virus [2]): SMALL PLAQUES; Actin protein tails (vaccinia virus [4]): wild-type actin protein tails
Cc1ccc(NC(=O)c2ccc(CN3CCN(Cc4ccc(F)cc4)CC3)cc2)cc1Nc1nccc(-c2cccnc2)n1 [STI-F]			PINPOINT PLAQUES	Class category of infected monolayers in plaque assay (vaccinia virus [2]): Class III; VACCINIA PLAQUE ASSAY 2 (vaccinia virus [2]): NO PLAQUES; Actin protein tails (vaccinia virus [4]): few actin tails
Brc1cnc2c(Nc3ccccc3)nccn12 [LG2-55]	(iii)	DE- LAYED CPE	PINPOINT PLAQUES	Effects in Vaccinia assays (vaccinia virus [2]): had effects; Effects in Herpes assay [1]: had effects
CCOC(=O)c1ccc(-c2ccc3c(-c4ccc(Br)cc4F)n[nH]c3n2)cc1 [APcK-50]	(iii)	DE- LAYED CPE		
Cc1ccc(NC(=O)c2ccc(CN3CCOCC3)cc2)cc1Nc1nccc(-c2cccnc2)n1 [CGP51148 WBZ-4]	(iii)	DE- LAYED CPE		
CC(=O)c1cccc(-c2cnc3c(Nc4ccc(N5CCOCC5)cc4)nccn23)c1 [LG2-81]	(iii)	DE- LAYED CPE		
